Literature values as cited in paper PMC12080252, “Daphnia magna as an Alternative Model for (Simultaneous) Bioaccumulation and Chronic Toxicity Assessment—Controlled Exposure Study Indicates High Hazard of Heterocyclic PAHs” (Environmental Science & Technology, 2025).
Several values for one entry are separate records, joined by “and”; a condition that tells them apart may be missing. Equal values may be shown once. Read-outs that look alike come from different tables or passages of the source.

Key:
[1] = Table S10; ref SI ref 23 (UK Environment Agency Report); cited from earlier work
fish = details: cited from earlier work
D. magna or D. pulex = details: cited from earlier work; for accumulation in water fleas: compared with fish; for BCF (M of several values): ref SI refs 4, 5
[2] = test system: aryl hydrocarbon receptor (AhR); details: cited from earlier work
D. magna = details: Table S1; footnote not given; cited from earlier work
[3] = D. magna or D. pulex, ref SI refs 8, 10

Molecule	log KOW [1]	half-life (fish; fish, Table S10, ref SI ref 23)	log BCFL5% (fish; fish, Table S10, ref SI ref 23)	log k2 (fish; fish, Table S10, ref SI ref 23)	further results
COP(=S)(OC)Oc1c(Cl)cc(C)cc1Cl [O-(2,6-Dichloro-4-methylphenyl) O,O-dimethyl ester, Phosphorothioic acid]	4.56	17.33 h	2.36	-1.40 h-1	–
CCCCCCCC(CCCC)c1ccc(S(=O)(=O)O)cc1 (stereo not shown) [C-12-5-LAS]	4.71	13.86 h	1.00	-1.30 h-1	–
c1ccc2c(c1)ccc1c3ccc4ccccc4c3[nH]c21 [dibenzocarbazole, 13H-dibenzo[a,i]carbazole]	–	–	–	–	half-life (D. magna or D. pulex; [3]): 9 h; log k2 (D. magna or D. pulex; [3]): -1.11 h-1; accumulation in water fleas (D. magna or D. pulex): accumulate even more in water fleas; bioaccumulation in fish (fish): high bioaccumulation in fish
Clc1cc2c(oc3c(Cl)c(Cl)c(Cl)c(Cl)c32)c(Cl)c1Cl [1,2,3,4,6,7,8-Heptachloro dibenzofuran]	7.40	127.97 h	3.16	-2.27 h-1	–
Brc1ccc(Br)c(-c2cc(Br)ccc2Br)c1 [2,2',5,5'-tetra bromobiphenyl]	6.50	1697.50 h	4.86	-3.39 h-1	–
Clc1cc2c(oc3cc(Cl)c(Cl)c(Cl)c32)c(Cl)c1Cl [1,2,3,6,7,8-Hexachloro dibenzofuran]	7.30	213.28 h	3.65	-2.49 h-1	–
ClC(Cl)=C(c1ccc(Cl)cc1)c1ccc(Cl)cc1 [pp’DDE]	–	–	–	–	BCF (M of several values) (fish; fish, ref SI refs 4, 7, 12): 54250
c1ccc2c(c1)oc1ccccc12 [dibenzofuran]	–	–	–	–	AhR agonism [2]: weak to moderate aryl hydrocarbon receptor (AhR) agonists
Brc1cc(Br)c(-c2ccccc2)c(Br)c1 [2,4,6-tri bromobiphenyl]	6.03	–	–	–	–
Phenol, 4-nonyl-, branched,	5.92	9.90 h	2.58	-1.15 h-1	–
CC1(C)[C@H](C(=O)OCc2cccc(Oc3ccccc3)c2)[C@@H]1C=C(Cl)Cl [cis-Permethrin]	7.43	36.97 h	2.45	-1.73 h-1	–
CC(C)C(C(=O)OC(C#N)c1cccc(Oc2ccccc2)c1)c1ccc(Cl)cc1 (stereo not drawn) [Cyano(3-phenoxyphenyl)methyl ester, 4-chloro-alpha-(1-methylethyl) benzeneacetic acid]	6.20	75.62 h	2.64	-2.04 h-1	–
Clc1cc2oc3cc(Cl)c(Cl)cc3c2cc1Cl [2,3,7,8-Tetrachlorodibenzo furan]	6.53	57.36 h	2.89	-1.92 h-1	–
c1ccc2c(c1)Cc1ccccc1S2 [thioxanthene]	–	–	–	–	lowest PNEC* (D. magna): 0.32 µg/L
Clc1cc2c(cc1Cl)Oc1c(cc(Cl)c(Cl)c1Cl)O2 [1,2,3,7,8-Pentachlorodibenzo-p-dioxin]	6.64	554.52 h	3.97	-2.90 h-1	–
Clc1cc2oc3c(Cl)c(Cl)c(Cl)cc3c2cc1Cl [2,3,4,7,8-Pentachloro dibenzofuran]	6.64	–	–	–	–
CCCCCCCCCCC(C)c1ccc(S(=O)(=O)O)cc1 (stereo not shown) [C-12-2-LAS]	4.71	23.77 h	2.16	-1.54 h-1	–
c1ccc2c(c1)Sc1ccccc1S2 [thianthrene]	–	–	–	–	bioaccumulation in fish (fish): high bioaccumulation in fish
ClC1C(Cl)C(Cl)C(Cl)C(Cl)C1Cl (stereo not shown) [Cyclohexane, 1,2,3,4,5,6-hexachloro-, (1a,2a,3B,4a,5a,6B)-]	3.72	12.60 h	2.81	-1.26 h-1	–
c1ccc2c(c1)Cc1c-2ccc2ccccc12 [Benzofluorene, benzo[a]fluorene]	–	–	–	–	body burden (D. magna or D. pulex; D. magna): 17600 µg/kg; log BAF*L5% (D. magna or D. pulex; D. magna): 4.09 L kg^-1 lipid
c1ccc2c(c1)Oc1ccccc1O2 [dibenzo[1,4]dioxane]	–	–	–	–	bioaccumulation in fish (fish): high bioaccumulation in fish
c1ccc2c(c1)Cc1ccccc1O2 [xanthene]	–	–	–	–	AhR agonism [2]: weak to moderate aryl hydrocarbon receptor (AhR) agonists; bioaccumulation in fish (fish; in vivo): high bioaccumulation in fish
c1ccc2ccccc2c1 [naphthalene]	–	–	–	–	AhR-mediated toxicity [2]: do not trigger AhR-mediated toxicity; half-life (D. magna or D. pulex; [3]): 0.42 h; log k2 (D. magna or D. pulex; in vivo): 0.22 h-1

Molecule	log KOW [1]	half-life (fish; fish, Table S10, ref SI ref 23)	log BCFL5% (fish; fish, Table S10, ref SI ref 23)	log k2 (fish; fish, Table S10, ref SI ref 23)	further results
c1ccc2cc3ccccc3cc2c1 [anthracene]	–	–	–	–	AhR-mediated toxicity [2]: do not trigger AhR-mediated toxicity; BCF (M of several values) (D. magna or D. pulex; D. magna or D. pulex): 944; half-life (D. magna or D. pulex; [3]): 1.18 h; log k2 (D. magna or D. pulex; [3]): -0.23 h-1
Brc1cc(Br)c(-c2c(Br)cc(Br)cc2Br)c(Br)c1 [2,2',4,4',6,6'-hexa bromobiphenyl]	7.20	2343.03 h	4.55	-3.53 h-1	–
c1ccc2cnccc2c1 [isoquinoline]	–	–	–	–	half-life (D. magna or D. pulex; [3]): 0.04 h; log k2 (D. magna or D. pulex; [3]): 1.26 h-1
c1ccc2cc3c(cc2c1)sc1ccccc13 [benzo[b]naphtho[2,3-d]thiophene]	–	–	–	–	bioaccumulation in fish (fish): high bioaccumulation in fish
c1cc2cccc3c4cccc5cccc(c(c1)c23)c54 [perylene]	–	–	–	–	half-life (D. magna or D. pulex; [3]): 5.02 h; log k2 (D. magna or D. pulex; [3]): -0.86 h-1
c1ccc2c(c1)sc1ccccc12 [dibenzothiophene]	–	–	–	–	bioaccumulation in fish (fish): high bioaccumulation in fish; lowest PNEC* (D. magna): 0.24 µg/L
c1ccc2nc3ccc4ccccc4c3cc2c1 [benz(a)acridine]	–	–	–	–	half-life (D. magna or D. pulex; [3]): 1.2 h; log k2 (D. magna or D. pulex; [3]): -0.24 h-1; lowest PNEC* (D. magna): 0.016 µg/L
c1ccc2c(c1)Cc1ccccc1-2 [fluorene]	–	–	–	–	AhR-mediated toxicity [2]: do not trigger AhR-mediated toxicity
c1ccc2cc3c(ccc4ccccc43)cc2c1 [benz[a]anthracene]	5.76	–	–	–	–
c1ccc2nc3ccccc3cc2c1 [acridine]	–	–	–	–	AhR agonism [2]: weak to moderate aryl hydrocarbon receptor (AhR) agonists; half-life (D. magna or D. pulex; [3]): 0.32 h; log k2 (D. magna or D. pulex; [3]): 0.33 h-1
c1ccc2c(c1)ccc1ccccc12 [phenanthrene]	–	–	–	–	AhR-mediated toxicity [2]: do not trigger AhR-mediated toxicity; BCF (M of several values) (D. magna or D. pulex; D. magna or D. pulex): 325; log k2 (D. magna or D. pulex; [3]): -0.27 h-1; half-life (D. magna or D. pulex; in vivo): 1.29 h; accumulation in fish versus invertebrates (Figure 3B) (fish; in vivo): accumulated in fish but not in Daphnia and H. azteca
c1ccc2ncccc2c1 [quinoline]	–	–	–	–	BCF (M of several values) (fish; in vivo): 2.5; log BCFL5% (fish; in vivo): 1.92
CC(C)Oc1cccc(NC(=O)c2ccccc2C(F)(F)F)c1 [N-[3-(1-Methylethoxy)phenyl]-2-(trifluoromethyl) benzamide]	3.70	5.78 h	1.32	-0.92 h-1	–
COP(=S)(OC)Oc1ccc(SC)c(C)c1 [O,O-Dimethyl O-[3-methyl-4-(methylthio)phenyl]ester phosphorothioic acid]	4.17	–	–	–	–
CCCCCCCCCCCCCOCCOCCOCCOCCOCCOCCOCCOCCO [Octaethylene glycol monotridecyl ether]	–	1.65 h	1.69	-0.38 h-1	–
Clc1cc2c(oc3c(Cl)c(Cl)c(Cl)cc32)c(Cl)c1Cl [2,3,4,6,7,8-Hexachloro dibenzofuran]	7.30	166.36 h	3.69	-2.38 h-1	–
Cc1c2ccccc2cc2ccccc12 [9-methyl-anthracene]	–	–	–	–	half-life (D. magna or D. pulex; [3]): 4.8 h; log k2 (D. magna or D. pulex; [3]): -0.84 h-1
CC(C)OC(=O)C(C(=O)OC(C)C)=C1SCCS1 [Bis(1-methylethyl)ester, 1,3-dithiolan-2-ylidene propanedioic acid]	2.88	3.65 h and 2.17 h	1.45 and 1.59 and 1.65	-0.72 h-1 and -0.49 h-1	–
Clc1cc2c(c(Cl)c1Cl)Oc1cc(Cl)c(Cl)c(Cl)c1O2 [1,2,3,6,7,8-Hexachloro dibenzo-p-dioxin]	7.30	332.71 h	3.64	-2.68 h-1	–
COP(=S)(OC)Oc1ccc(Cl)cc1C#N [Methyl isocyanothion]	3.58	14.10 h	2.09	-1.31 h-1	–
COc1ccc(C(c2ccc(OC)cc2)C(Cl)(Cl)Cl)cc1 [Methoxychlor]	–	–	–	–	accumulation in fish versus invertebrates (Figure 3B) (fish; in vivo): accumulating in invertebrates but not in fish
c1ccc2c(c1)ccc1c3ccccc3sc21 [Benzo[b]naphtho[2,1-d]thiophene]	–	–	–	–	accumulation in water fleas (D. magna or D. pulex): accumulate even more in water fleas
